The structures appear in SMILES notation. Bounds are passed on as bounds.

As usually defined, the IC50 is the concentration that gives 50% inhibition.

Sequence of Hypoxia-inducible factor 1-alpha (Q16665 whole entry): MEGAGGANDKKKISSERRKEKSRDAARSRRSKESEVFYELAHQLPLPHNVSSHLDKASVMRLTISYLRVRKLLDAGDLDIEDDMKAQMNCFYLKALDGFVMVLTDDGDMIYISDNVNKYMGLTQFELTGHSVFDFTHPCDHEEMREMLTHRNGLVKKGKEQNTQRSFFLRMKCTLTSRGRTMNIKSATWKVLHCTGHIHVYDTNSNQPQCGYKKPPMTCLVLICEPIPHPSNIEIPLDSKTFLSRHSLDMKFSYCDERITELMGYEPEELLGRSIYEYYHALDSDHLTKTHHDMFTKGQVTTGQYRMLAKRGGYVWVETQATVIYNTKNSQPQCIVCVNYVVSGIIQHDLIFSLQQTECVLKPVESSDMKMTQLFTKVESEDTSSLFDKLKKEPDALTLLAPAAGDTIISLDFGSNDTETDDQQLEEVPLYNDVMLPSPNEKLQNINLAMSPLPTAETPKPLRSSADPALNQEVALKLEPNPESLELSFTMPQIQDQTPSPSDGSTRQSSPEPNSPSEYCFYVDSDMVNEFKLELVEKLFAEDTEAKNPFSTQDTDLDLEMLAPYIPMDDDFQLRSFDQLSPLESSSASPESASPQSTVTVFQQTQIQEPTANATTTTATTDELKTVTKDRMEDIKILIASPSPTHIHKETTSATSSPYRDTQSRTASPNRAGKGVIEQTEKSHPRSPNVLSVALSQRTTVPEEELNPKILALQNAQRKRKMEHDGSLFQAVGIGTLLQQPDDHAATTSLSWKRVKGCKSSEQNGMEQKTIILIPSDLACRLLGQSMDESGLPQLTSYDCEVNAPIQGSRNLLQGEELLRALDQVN

The experiment concerns the target Hypoxia-inducible factor 1-alpha (Homo sapiens, UniProt Q16665). Briefly: ChEBML_1681384. The protocol: Inhibition of HIF-1alpha in human HCT116 cells incubated for 12 hrs under hypoxic conditions by HRE dual-luciferase reporter gene assay
`COC(=O)c1ccc(OC)c(NC(=O)COc2ccc(C(C)(C)CC(C)(C)C)cc2)c1` returned a half-inhibitory concentration (IC50) greater than 40 µM. The value for `CCCCCc1ccc(OCC(=O)Nc2cccc(C(=O)OC)c2)cc1` was greater than 40 µM; that for `COC(=O)c1cccc(NC(=O)CCCOc2ccc(C(C)(C)CC(C)(C)C)cc2)c1` was 1.4 µM.

Values taken from BindingDB's records for doi:10.1021/acs.jmedchem.7b01231 (Dongguk University, 2017).
